# Assays:
# Type in all cases: cell-based, Escherichia coli
# [1] = test system: E. coli cells expressing MazF; assay: Antibiotic survival assay (ciprofloxacin), coexpression with MazF; details: 4 μg/mL ciprofloxacin, up to 4 h; toxin induced 1 h before antibiotic
# Description: This experiment was conducted as described above (“bacterial growth assay”) until the induction of the toxin. However, 1 h after mazF induction with 0.5% of L-arabinose, approximately two million cells were removed from each culture and diluted with LB (final volume of 10 mL) supplemented with IPTG, L-arabinose, and antibiotics for plasmid maintenance. Here, an aliquot of 1 mL was withdrawn, which represents time zero (before the implementation of antibiotic stress). Cells were then exposed to 4 μg/mL ciprofloxacin and incubated at 37 °C/215 rpm for 4 h. Aliquots of 1 mL were taken at intervals of 1 h and washed three times with LB medium (5,000 rpm/5 min/4 °C) to remove the antibiotic. After the last wash step, the culture medium was removed, and the cell pellet was resuspended in 100 μL of LB medium. 10-fold serial dilutions were made from this solution using LB medium, and 2 μL of each dilution was spotted on solid LB-agar supplemented with antibiotics for the maintenance of plasmids. Plates were incubated at 37 °C for 24 h and photographed. The experiment was repeated at least three times.
# [2] = test system: E. coli cells superexpressing MazF; assay: Glucose uptake assay (2-NBDG, flow cytometry), coexpression with MazF; details: cells coexpressing MazF and recombinant SamF, 400 μM 2-NBDG
# Description: This experiment was carried out as described above (“bacterial cell growth assay”). However, 1 h after mazF induction with 1% of L-arabinose, cells were harvested by centrifugation (10 min/4,500 rpm/4 °C). The cell pellet was resuspended in 5 mL of M9 media without glucose or any other carbon source (M9^–glucose). Cells were pelleted again and resuspended in M9^–glucose as above. Ten million cells were removed from this solution in a final volume of 5 mL of M9^–glucose and incubated with 400 μM of the fluorescent glucose analog 2-NDBG (Thermofisher) at 37 °C/300 rpm. Aliquots of 0.5 mL were taken at 1 h intervals for a period of 3 h. To remove the noninternalized 2-NBG dye, cells were centrifuged (10 min/4,500 rpm/4 °C) and the supernatant was removed. After a new wash step with 1 mL of M9^–glucose, the cell pellet was resuspended in 0.5 mL of M9^–glucose. Cells were placed on ice until all samples were collected and then immediately subjected to flow cytometry on a BD FACS Canto II system (BD Biosciences) with an excitation/emission wavelength at 488/530 nm. The percentage of cells labeled with 2-NGDG was calculated relative to the fluorescence of the stainless control with FlowJo software.
# [3] = test system: E. coli cells superexpressing MazF; assay: Resazurin assay (redox state), coexpression with MazF; details: cells coexpressing MazF and recombinant SamF, 1 h MazF expression, 75 μg/mL resazurin
# Description: This experiment was conducted as described above (“bacterial cell growth assay”). However, 1 h after mazF induction with 1% of L-arabinose, approximately 40 millions of cells in 200 μL of LB (with antibiotics, IPTG and L-arabinose) were taken and incubated with 75 μg/mL of resazurin (final concentration). The experiment was performed in a 96-well plate in triplicate. The plate was incubated at 37 °C/70 rpm, and the color development, due to resazurin reduction, was monitored every hour visually and by scanning the dye absorbance between 500–700 nm.
# [4] = test system: E. coli cells superexpressing MazF; assay: Oxygen consumption assay, coexpression with MazF; details: cells coexpressing MazF and recombinant SamF; 1 mM IPTG, 1% L-arabinose, 37 °C
# Description: This experiment was conducted as described above (“bacterial growth assay”). However, 90 min after induction of recombinant samF with 1 mM IPTG, an aliquot of 1 mL of a cell suspension containing approximately 2.5 million cells was removed from each culture and placed into the chamber of an Oroboros O2K oxygraph (Bioplast) instrument. After equilibration of the oxygen consumption rate, mazF expression was induced by the addition of 1% of L-arabinose, and the consumption rate and amount of dissolved oxygen was monitored for a period of about 3 h. The experiment was carried out at 37 °C under orbital shaking at 200 rpm and repeated at least three times.
sequence,measurement,setting,value
"MSHLFWAQFDEYF [recombinant SamF, recombinantly expressed SamF ([…]) from pET-24a-samF in E. coli]",Survival of cells coexpressing MazF and the peptide under ciprofloxacin (result in words),[1],almost eradicated after only 1 h
same,Percentage of cells labeled with 2-NBDG,[2]; first hour,64%
same,Percentage of cells labeled with 2-NBDG,[2]; second hour,87%
same,Percentage of cells labeled with 2-NBDG,[2]; third hour,96%
same,Time to complete reduction of resazurin,[3],3 to 4 h
same,Oxygen consumption rate after mazF induction,[4],20 pmol/s

# Reference: PMC12557383, “Development of a Potent and Functional In Vivo Peptide Competitive Inhibitor for the Toxin MazF” (Journal of Medicinal Chemistry, 2025)
